Assay results reported in publication PMC3446921, “Enhanced Solubilisation of Six PAHs by Three Synthetic Cyclodextrins for Remediation Applications: Molecular Modelling of the Inclusion Complexes” (PLoS ONE, 2012).
Converted amounts (≈) assume the structure as drawn. “And” between values parts separate entries of the source, which are not always exact repeats. Equal values may be shown once.

What was measured:
[1] = ref [40], cited from earlier work
[2] = PAHs aqueous solubility in the absence of CD; details: 25 °C, water, thermodynamic from solid
Experimental: (§1) 5 mg of each PAH were added to aqueous solutions (10 mL) containing increasing dissolved concentrations (from 0 to 0.1 M) of each CD. The experiments were carried out in triplicate. Flasks were sealed and shaken at 25°C for 1 week. The concentration of each PAH in solution was determined using a Shimadzu HPLC chromatograph equipped with a chromatographic column, Kromasil 100 C18 reverse-phase (5 µm, 15×0.4), coupled to a fluorescence detector (Shimadzu RF-10APXL). The chromatographic conditions were as follows: mobile phase, acetonitrile/water (60∶40); flow, 1.5 mL min^−1; temperature, 30°C. […] To obtain the phase solubility diagrams, the concentration of the PAHs dissolved versus the increasing concentrations of the CDs used were represented.

[3] = Phase solubility studies (Higuchi and Connors) with RAMEB; details: for solubility at 1 week: 25 °C, aqueous with cosolvent or surfactant or cyclodextrin, thermodynamic from solid; for Apparent stability constant Kc: RAMEB 0 to 0.1 M, 1:1 complex, 25°C
[4] = Phase solubility studies (Higuchi and Connors) with HP-β-CD; details: for Apparent stability constant Kc: HP-β-CD 0 to 0.1 M, 1:1 complex, 25°C
[5] = Phase solubility studies (Higuchi and Connors) with HP-γ-CD; details: HP-γ-CD 0 to 0.1 M; 1:1 complex; 25°C
[6] = physchem; details: 25 °C, aqueous with cosolvent or surfactant or cyclodextrin, thermodynamic from solid
[7] = physchem; details: 25 °C, water, thermodynamic from solid
Experimental: as §1

[8] = Phase solubility studies: comparison of the six PAHs across the three CDs; details: for Decreasing order of Se and Kc: per CD; for Decreasing order of PAHs apparent solubility: reached with 0.1 M of the CD
[9] = 1 week
Experimental: as §1

| Compound | solubility at 1 week [2] [µg/mL] | Apparent stability constant Kc [3] | Apparent stability constant Kc [4] | Apparent stability constant Kc [5] | Decreasing order of Se and Kc [8] | other results |
| --- | --- | --- | --- | --- | --- | --- |
| c1ccc2cc3ccccc3cc2c1 [ANT, anthracene] | 0.076 (≈ 0.426 µM) | 5399 (±52) M^−1 | 3284 (±204) M^−1 | 234 M^−1 and 234 (±35) M^−1 | – | Kc with γ-CD ([1]; γ-CD, [42]): 240 to 330 M⁻¹; solubility at 1 week [3]: ≤ 41 µg/mL; Kc value relative to the lowest one (PYR) ([3]; RAMEB complexes): about 10 fold |
| c1ccc2c(c1)-c1cccc3cccc-2c13 [FLT, fluoranthene] | – | – | – | – | – | solubility [6]: ≤ 101 µg/mL; solubility [7]: 0.26 µg/mL (≈ 1.29 µM) |
| c1cc2ccc3cccc4ccc(c1)c2c34 [PYR, pyrene] | – | – | – | – | – | Kc with natural γ-CD ([1]; natural γ-CD, [41]): 250 to 300 M⁻¹ |
| c1cc2c3c(cccc3c1)CC2 [ACE, acenaphthene] | 1.93 (≈ 12.5 µM) | 644 (±12) M^−1 | 661 (±35) M^−1 | 758 (±41) M^−1 | – | solubility at 1 week ([8]; 25 °C, aqueous with cosolvent or surfactant or cyclodextrin, thermodynamic from solid): 125 to 147 µg/mL (≈ 811 to 953 µM) |
| randomly methylated-β-CD [RAMEB] | – | – | – | – | ANT>PHE>FLT>FLU>ACE>PYR | Decreasing order of PAHs apparent solubility [8]: FLU≥PHE>ACE>FLT>ANT>PYR |
| hydroxypropyl-γ-CD [HP-γ-CD] | – | – | – | – | PYR>ACE>FLT>PHE>ANT>FLU | – |
| 2-Hydroxypropyl-β-CD [HP-β-CD] | – | – | – | – | PHE>ANT>FLT>FLU>PYR>ACE | Decreasing order of PAHs apparent solubility [8]: PHE≥FLU>ACE>FLT>ANT>PYR |
| c1ccc2c(c1)ccc1ccccc12 [PHE, phenanthrene] | 1.2 (≈ 6.73 µM) | 4925 (±511) M^−1 | 3871 (±322) M^−1 | 447 (±17) M^−1 | – | solubility at 1 week ([3]; aqueous RAMEB solution): ≤ 572 µg/mL; Kc value relative to that for ACE ([4]; HP-β-CD complexes): ~6 fold |
| c1ccc2c(c1)Cc1ccccc1-2 [FLU, fluorene] | – | 2906 (±164) M^−1 | – | – | – | PAHs aqueous solubility (S) [9]: 1.90 mg/L; solubility at 1 week ([3]; aqueous RAMEB solution): ≤ 574 µg/mL |
